“Also recorded” adds a separate entry of the source.
Legend:
[1] = cited from earlier work
[2] = molecular target: T1, P-gp (Mus musculus, UniProt P21447); experiment: Epirubicin brain accumulation assay; assay type: in vivo; settings: mice; 10 mg/kg epirubicin i.v. with 0.05 mg/kg Lexiscan® or 50 mg/kg PSC833 for 15 minutes
T1 construct: down-modulation of P-gp expression and function in brain vascular endothelial cells in WT mice; from tissue; host or cells: brain of WT mice
Description: FIG. 12A is a fluorescence microscopy image showing immunofluorescence images of brains from Lexiscan®-treated mice of WT brain at 15 and 30 minutes after Lexiscan® treatment. Frozen brain sections were stained with GLUT1 (red), or P-gp (green) and counterstained with DAPI (blue). FIG. 12B is a fluorescence microscopy image showing an enlarged image of FIG. 12A. FIG. 12C is a graph summarizing the experimental results of a brain epirubicin accumulation assay in the Lexiscan®- and vehicle-treated (control) mice. Briefly, 10 mg/kg of epirubicin was injected intravenously with or without 0.05 mg/kg of Lexiscan®. Mice were perfused with ice-cold PBS and sacrificed at different time points. The accumulation of epirubicin in the brain was measured using fluorometric excitation at 488 nm and emission at 590 nm. *P<0.05 (n=4, 2-tailed Student's t test). FIG. 12D are fluorescence microscopy images showing fluorescent microscopic analysis of epirubicin accumulation in the brains of mice treated with Lexiscan® or PSC833 (a functional P-gp inhibitor) compared with vehicle (control). 10 mg/kg of epirubicin was injected intravenously with or without 0.05 mg/kg of Lexiscan® or 50 mg/kg of PSC833 for 15 minutes. Mice were perfused with ice-cold PBS and sacrificed. Brain was sectioned for microscopic analysis for full-brain image, and focal zoomed image from cortex was laid as an inset. Epirubicin is in red, and nucleus was counterstained with DAPI (blue). FIG. 12E are graphs showing the quantified intensity of epirubicin from different regions of cortex (CTX), cerebellum (CRBL), and hippocampus (HPC) from brains of control, Lexiscan®-, or PSC833-injected animals and depicted as graphs. The scale bars indicate 100 μm in FIG. 12A; 50 μm in FIG. 12B, and 5 mm in FIG. 12D). ***P<0.001 (n=50, 2-tailed Student's t test).
FIG. 14A is a western blot of P-gp and BCRP1 from mouse brain at 2 and 18 hours after NECA treatment. FIG. 14B are graphs showing the enumeration of the expression intensity of P-gp and BCRP1 from the western blots shown in FIG. 14A. The intensity of the bands from NECA treatment group was divided by that of DMSO control. […] For fluorescence microscopy, frozen brain sections were stained with GLUT1 (red) or P-gp (green) and counterstained with DAPI (blue). […] The accumulation of epirubicin in the brain was measured using fluorometry, with excitation at 488 nm and emission at 590 nm. *P<0.05 (n=4, 2-tailed Student's t test).
For Lexiscan® study, 10 mg/kg of epirubicin was injected with or without Lexiscan® (0.05 mg/kg) at different time points, and mice were sacrificed. […] Samples were spun down at 17,000 g for 30 minutes, and the concentration for epirubicin was analyzed with fluorimetry with […].

[3] = tested on: P-gp; experiment: P-gp expression in HEK293T kidney cell line (IFA MFI, western blot); assay type: cell-based, human; settings: Lexiscan® 1, 0.5, 0.1 μM, 15 minutes
Description: FIGS. 20A and 20B illustrate that Lexiscan® downregulates P-gp expression in the kidney cell line HEK293T while treatment with antagonist SCH58261 blocks Lexiscan®'s effects. […] HEK293T cells were grown to confluency on coverslips, and treated with varying concentrations of Lexiscan® (1, 0.5, and 0.1 μM) for 15 minutes. Cells were permeabilized and then stained with an antibody to P-gp (C219) and visualized under a fluorescent microscope. FIG. 20B is a graph of the MFI of P-gp in FIG. 20A. DMSO vs. Lexiscan® (“Lex”), *=P<0.05, Lexiscan® (“Lex”)+SCH58261 (“SCH”), ****P<0.0001.
HEK293T transformed kidney cells were treated with varying concentration of Lexiscan® (1, 0.5, 0.1 μM). Cells were lysed with lysis buffer ([…]), containing protease inhibitor cocktail. Samples were loaded on 7% SDS PAGE at 100V for 1 hour and transferred to nitrocellulose paper. The intensity of bands were analyzed by densitometry and plotted as a graph. Statistics: two-tailed student's t test: *=P<0.5, ****=P<0.0001.
Applicants investigated whether A2A AR agonists could modulate P-gp expression in the HEK293T human kidney cell line. HEK293T cells were grown to confluency on coverslips and treated with varying concentrations of Lexiscan, Lexiscan® plus the A2A antagonist (SCH58261), or vehicle control for 15 minutes. Cells were then permeabilized, stained with an antibody to P-gp, and visualized under a fluorescent microscope (FIG. 20A). The mean fluorescence intensity (MFI) of P-gp was quantified and graphed in FIG. 20B.
HEK293T cells were treated with various concentrations of Lexiscan, lysed, loaded onto an SDS-PAGE gel, transferred to a nitrocellulose membrane, and used for western blot analysis.

[4] = tested on: P-gp; experiment: Epirubicin accumulation and P-gp staining in MCF7 cells (fluorescence microscopy); assay type: cell-based, human; settings: 1 μM
Description: MCF7 cells (human breast cancer cell line) were cultured in 24 well plates until they reached confluency. FIGS. 17A-17C are images of western blots of cells treated with vehicle control (i.e., DMSO) (“D”) or 1 μM of the broad spectrum AR agonist NECA (“N”) (FIG. 17A), 1 μM of the A2A AR agonist Lexiscan® (“L”) (FIG. 17B), or 1 μM of the A2B AR agonist BAY60 (“B”) (FIG. 17C), respectively for 24, 48, 72 hours. Cells were lysed with lysis buffer and expression levels of P-gp, MMP9, or VEGF analyzed by western blot. GAPDH was used as loading a control. FIG. 17D is a graph of experimental results showing that Lexiscan® down-regulates P-gp expression in MCF7 breast cancer cells. MCF7 breast cancer cells were treated with Lex (0.25 μM) concomitant with Rhodamine 123 (“Rho123”). […] Students T test, P<0.001. […] FIG. 17E is a fluorescence microscopy image showing MCF7 breast cancer cells grown on coverslips and treated with vehicle (DMSO, control), or A2 AR agonists, Lexiscan® (1 μM) or A1193 (1 μM) for 15 minutes in the presence of epirubicin. Cells were stained with an antibody to P-gp and mounted with DAPI. FIG. 17F is a graph of the fluorescent intensity quantified from FIG. 17E by measuring the mean fluorescent intensity (“MFI”) of epirubicin (pink) that is present in cell nuclei. ***=P<0.0001.
To further assess the modulation of A2A AR agonists on P-gp expression in MCF7 cells, applicants evaluated the accumulation of the P-gp substrate epirubicin in MCF7 cells. MCF7 cells were treated with DMSO (control), 1 μM Lexiscan®, or 1 μM of the A2A AR agonist A1193. […] In this case, the down-regulation of P-gp expression is equivalent to down-regulation of its function (Kim et al., “A2A Adenosine Receptor Modulates Drug Efflux Transporter P-Glycoprotein at the Blood-Brain Barrier,” J Clin Invest. 126(5):1717-33 (2016), which is hereby incorporated by reference in its entirety).

[5] = tested on: P-gp; experiment: P-gp expression in Caco-2 human tumor cell line (IFA MFI, western blot); assay type: cell-based; settings: 1 μM for 30 minutes (IFA), 1, 0.5, 0.1 μM (western blot)
Description: FIG. 19A are fluorescence microscopy images of Caco-2 cells (originally isolated from a human primary colonic tumor) grown on coverslips and treated with Lexiscan® (1 μM) or A1193 (1 μM), or DMSO (vehicle) control for 30 minutes. Next, cells were fixed, permeabilized, and stained with an antibody to P-gp. After washing, cells were mounted with DAPI for nuclear staining. FIG. 19B is a graph of the MFI of P-gp. FIG. 19C is a graph of densitometric analysis of a western blot of Caco-2 cells treated with Lexiscan® in varying concentrations (1, 0.5, and 0.1 μM). Densitometric analysis was performed to quantify the amount of P-gp in western blot. Statistics: two tailed student's t test for FIG. 19B, *<0.5.
Applicants also evaluated whether A2A AR agonists can modulate P-gp expression in a human tumor cell line, Caco-2 cells. Briefly, Caco-2 cells (originally isolated from a human tumor) were grown on coverslips and treated with Lexiscan®, A1193, or vehicle control for 30 minutes. Cells were then fixed, permeabilized, and stained with an antibody to P-gp. After washing, cells were mounted with DAPI for nuclear staining (FIG. 19A). The mean fluorescence intensity (MFI) of P-gp was quantified and graphed in FIG. 19B.

T1 sequence (P21447 whole entry): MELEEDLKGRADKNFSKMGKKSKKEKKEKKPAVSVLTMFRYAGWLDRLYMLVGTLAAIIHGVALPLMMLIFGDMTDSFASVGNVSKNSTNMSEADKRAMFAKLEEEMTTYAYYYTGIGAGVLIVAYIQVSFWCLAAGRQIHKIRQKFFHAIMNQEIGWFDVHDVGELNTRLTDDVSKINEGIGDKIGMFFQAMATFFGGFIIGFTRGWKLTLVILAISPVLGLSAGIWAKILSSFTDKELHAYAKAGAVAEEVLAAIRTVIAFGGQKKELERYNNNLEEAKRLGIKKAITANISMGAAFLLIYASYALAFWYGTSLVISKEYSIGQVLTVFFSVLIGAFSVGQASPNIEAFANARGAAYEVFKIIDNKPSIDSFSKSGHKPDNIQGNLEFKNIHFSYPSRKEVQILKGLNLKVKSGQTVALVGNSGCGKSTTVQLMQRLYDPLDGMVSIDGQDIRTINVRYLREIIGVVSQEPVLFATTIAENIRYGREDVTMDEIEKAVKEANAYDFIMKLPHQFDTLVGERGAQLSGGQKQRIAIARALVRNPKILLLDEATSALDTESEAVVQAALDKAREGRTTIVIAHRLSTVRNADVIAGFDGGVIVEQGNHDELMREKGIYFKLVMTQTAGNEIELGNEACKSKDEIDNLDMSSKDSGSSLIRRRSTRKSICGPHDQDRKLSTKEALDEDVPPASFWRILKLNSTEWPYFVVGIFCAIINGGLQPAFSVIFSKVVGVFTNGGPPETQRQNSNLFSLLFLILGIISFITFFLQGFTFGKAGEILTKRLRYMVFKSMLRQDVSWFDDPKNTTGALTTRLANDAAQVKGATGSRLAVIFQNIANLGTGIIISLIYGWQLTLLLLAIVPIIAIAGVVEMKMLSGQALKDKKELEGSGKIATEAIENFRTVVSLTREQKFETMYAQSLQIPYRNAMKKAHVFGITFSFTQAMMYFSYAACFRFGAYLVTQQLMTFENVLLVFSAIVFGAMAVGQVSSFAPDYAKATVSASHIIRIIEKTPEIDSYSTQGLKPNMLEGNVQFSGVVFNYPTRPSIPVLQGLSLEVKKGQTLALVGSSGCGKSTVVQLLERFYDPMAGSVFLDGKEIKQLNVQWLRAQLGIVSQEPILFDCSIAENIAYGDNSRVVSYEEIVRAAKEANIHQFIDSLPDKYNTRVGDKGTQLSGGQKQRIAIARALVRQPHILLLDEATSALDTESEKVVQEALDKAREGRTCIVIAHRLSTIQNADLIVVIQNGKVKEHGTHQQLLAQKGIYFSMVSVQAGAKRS

Nc1ncnc2c1ncn2[C@@H]1O[C@H](CO)[C@@H](O)[C@H]1O [adenosine, 9-β-D-Ribofuranosyl-9H-purin-6-amine]
half-life [1]: about 10 seconds

C/C=C/C[C@@H](C)C(=O)[C@H]1C(=O)N[C@@H](C(C)C)C(=O)N(C)CC(=O)N(C)[C@@H](CC(C)C)C(=O)N[C@@H](C(C)C)C(=O)N(C)[C@@H](CC(C)C)C(=O)N[C@@H](C)C(=O)N[C@H](C)C(=O)N(C)[C@@H](CC(C)C)C(=O)N(C)[C@@H](CC(C)C)C(=O)N(C)[C@@H](C(C)C)C(=O)N1C [PSC833]
Epirubicin fluorescent intensity in brain sections (cortex, cerebellum, hippocampus) [2]: Significantly lower epirubicin intensity; also recorded: lower epirubicin intensity than even the control treatment group

Nc1nc2c(cnn2CCc2ccccc2)c2nc(-c3ccco3)nn12 [SCH58261, 2-(2-Furanyl)-7-(2-phenylethyl)-7H-pyrazolo[4,3-e][1,2,4]triazolo[1,5-c]pyrimidin-5-amine]
P-gp expression (MFI) [3]: blocked the effects of Lexiscan®

CCNC(=O)[C@H]1O[C@@H](n2cnc3c(NCC(c4ccccc4)c4ccccc4)nc(C(=O)NCCNC(=O)NC4CCN(c5ccccn5)CC4)nc32)[C@H](O)[C@@H]1O [A1193, 6-(2,2-diphenylethylamino)-9-((2R,3R,4S,5S)-5-(ethylcarbamoyl)-3,4-dihydroxytetrahydrofuran-2-yl)-N-(2-(3-(1-(pyridin-2-yl)piperidin-4-yl)ureido)ethyl)-9H-purine-2-carboxamide]
P-gp expression (antibody staining) ([4]; 15 minutes): down-regulate P-gp expression
Epirubicin accumulation (MFI in cell nuclei) ([4]; 15 minutes in the presence of epirubicin): retained significantly more epirubicin than those treated with control
P-gp expression [5]: downregulate P-gp expression

Source: patent publication US10953015B2, “Use of adenosine receptor signaling to regulate P-gp function” (CORNELL UNIVERSITY, priority 2016, dated 2021)
